This experiment has as its system Moloney murine leukemia virus (MoLV). The experiment is described as follows: in vitro XC plaque assay (inhibition of growth and replication of murine leukemia virus in mouse SC-1 cells). The conditions noted are these: compound added 2 hours prior to virus; for Average No. of Foci/plate: Control 36 foci/plate. It counts as cell-based. How it is done: This assay was performed according to the method of Rowe et al. (Virology, 1970, 42, 1136-39) as previously described by L. Hsu, et al. (J. Virological Methods, 1980, 1, 167-77) and T. L. Bowlin and M. R. Proffitt (J. Interferon Res., 1983, 3(1), 19-31). Mouse SC-1 cells (fibroblast) (10⁵) were seeded into each well of 6-well cluster plates (Costar #3506) in 4 ml Minimum Essential Medium (MEM) with 10% Fetal Calf Serum (FCS). Following an 18 hour incubation period (37°C), Moloney murine leukemia virus (MoLV) was applied at a predetermined titer to give optimal (i.e. countable) numbers of virus plaques. Compounds were added 2 hours prior to addition of the virus. Three days later the culture medium was removed, the SC-1 cell monolayers were exposed to UV irradiation (1800 ergs), and rat XC cells […] were seeded into each well in 4 ml MEM. Following an additional 3 day incubation (37°C), these cells were fixed with ethyl alcohol (95%) and stained with 0.3% crystal violet. Plaques were then counted under low magnification.

Broadly, the inhibition is the percentage by which the read-out fell short of the control. The low end stands for little suppression, the high end for strong suppression. Turning to `Cc1cn([C@H]2C[C@H](N=[N+]=[N-])[C@@H](CO)O2)c(=O)[nH]c1=O` [AZT, 3′-azido-3′-deoxythymidine, reference compound], the “Average No. of Foci/plate” value (Concentration 0.001 µg/ml) was determined as 18. Moreover, where the note is “Murine leukemia virus, SC1, Concentration 0.001 µg/ml”, the inhibition at 0.001 µg/mL was 50%.
Turning to `Nc1ccn([C@@H]2O[C@H](CO)[C@@H](O)C2(F)F)c(=O)n1` [2′-Deoxy-2′,2′-Difluorocytidine, 2′-deoxy-2′,2′-difluorocytidine], the “Average No. of Foci/plate” value is, setting by setting: (Concentration 0.0025 µg/ml) 28; (Concentration 0.005 µg/ml) 15; (Concentration 0.01 µg/ml) 0; (Concentration 0.1 µg/ml) 0. Where the note is “Murine leukemia virus, SC1, Concentration 0.0025 µg/ml”, this compound came in with an inhibition at 0.0025 µg/mL of 22%. 0.005 µg/mL produced 58% inhibition (Murine leukemia virus, SC1, Concentration 0.005 µg/ml). Moreover, the inhibition at 0.01 µg/mL (Murine leukemia virus, SC1, Concentration 0.01 µg/ml) amounted to 100%. Besides, the inhibition at 0.1 µg/mL (Murine leukemia virus, SC1, Concentration 0.1 µg/ml) turned out to be 100%.
